# Reference: ChEMBL document CHEMBL5465560, “Selectivity Literature for EUbOPEN Chemogenomic Library” (2024)
# Legend:
# [1] = molecular target: Nuclear receptor subfamily 1 group I member 2 (Homo sapiens, UniProt O75469); test: Selectivity interaction (PXR Receptor agonist/antagonist assay: TR-FRET human recombinant ) EUB0000877a NR1I2
# [2] = molecular target: Protein kinase C theta type (Homo sapiens, UniProt Q04759); test: Selectivity interaction (KinomeScan (DiscoverX)) EUB0000595a PRKCQ; conditions: at 10 µM
# [3] = molecular target: T1, Serine/threonine-protein kinase Nek1 (Homo sapiens) (UniProt Q96PY6); test: Selectivity interaction (Kinase screening (Nanosyn)) EUB0000604a NEK1
# T1 sequence (whole entry): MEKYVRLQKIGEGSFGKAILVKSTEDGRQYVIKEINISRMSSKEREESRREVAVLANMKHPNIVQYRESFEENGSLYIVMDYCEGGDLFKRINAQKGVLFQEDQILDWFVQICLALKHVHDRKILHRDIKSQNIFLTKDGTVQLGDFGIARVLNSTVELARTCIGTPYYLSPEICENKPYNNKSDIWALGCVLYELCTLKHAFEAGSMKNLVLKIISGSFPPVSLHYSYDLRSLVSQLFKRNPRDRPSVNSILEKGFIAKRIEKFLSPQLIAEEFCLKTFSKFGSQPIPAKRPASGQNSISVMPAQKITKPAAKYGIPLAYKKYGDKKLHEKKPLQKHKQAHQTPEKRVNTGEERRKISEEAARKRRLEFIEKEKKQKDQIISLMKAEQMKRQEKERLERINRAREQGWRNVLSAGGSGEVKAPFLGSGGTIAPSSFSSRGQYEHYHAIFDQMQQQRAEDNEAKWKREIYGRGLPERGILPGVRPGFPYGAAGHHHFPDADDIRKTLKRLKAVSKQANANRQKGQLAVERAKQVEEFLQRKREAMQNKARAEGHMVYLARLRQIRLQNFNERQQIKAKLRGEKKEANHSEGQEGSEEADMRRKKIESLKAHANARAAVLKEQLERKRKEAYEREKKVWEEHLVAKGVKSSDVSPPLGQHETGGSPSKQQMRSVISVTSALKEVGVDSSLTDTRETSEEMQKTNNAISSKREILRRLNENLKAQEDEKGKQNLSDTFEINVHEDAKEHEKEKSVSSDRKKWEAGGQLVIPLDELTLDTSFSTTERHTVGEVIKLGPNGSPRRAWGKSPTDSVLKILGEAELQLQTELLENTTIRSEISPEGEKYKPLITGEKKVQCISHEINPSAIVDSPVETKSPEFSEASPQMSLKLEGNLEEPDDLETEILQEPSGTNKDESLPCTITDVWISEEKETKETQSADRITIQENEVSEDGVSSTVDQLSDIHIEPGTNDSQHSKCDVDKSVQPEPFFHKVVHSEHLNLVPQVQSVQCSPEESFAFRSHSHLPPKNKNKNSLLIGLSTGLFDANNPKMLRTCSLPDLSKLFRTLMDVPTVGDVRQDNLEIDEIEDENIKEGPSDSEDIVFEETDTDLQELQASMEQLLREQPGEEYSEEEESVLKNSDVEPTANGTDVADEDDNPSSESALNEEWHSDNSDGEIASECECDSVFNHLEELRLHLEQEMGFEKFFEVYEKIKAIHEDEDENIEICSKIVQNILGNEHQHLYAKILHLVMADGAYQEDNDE
# [4] = molecular target: T2, Myosin light chain kinase (Homo sapiens) (UniProt Q32MK0); test: Selectivity interaction (KinomeScan (DiscoverX)) EUB0001079a MYLK3; conditions: at 1 µM
# T2 sequence (whole entry): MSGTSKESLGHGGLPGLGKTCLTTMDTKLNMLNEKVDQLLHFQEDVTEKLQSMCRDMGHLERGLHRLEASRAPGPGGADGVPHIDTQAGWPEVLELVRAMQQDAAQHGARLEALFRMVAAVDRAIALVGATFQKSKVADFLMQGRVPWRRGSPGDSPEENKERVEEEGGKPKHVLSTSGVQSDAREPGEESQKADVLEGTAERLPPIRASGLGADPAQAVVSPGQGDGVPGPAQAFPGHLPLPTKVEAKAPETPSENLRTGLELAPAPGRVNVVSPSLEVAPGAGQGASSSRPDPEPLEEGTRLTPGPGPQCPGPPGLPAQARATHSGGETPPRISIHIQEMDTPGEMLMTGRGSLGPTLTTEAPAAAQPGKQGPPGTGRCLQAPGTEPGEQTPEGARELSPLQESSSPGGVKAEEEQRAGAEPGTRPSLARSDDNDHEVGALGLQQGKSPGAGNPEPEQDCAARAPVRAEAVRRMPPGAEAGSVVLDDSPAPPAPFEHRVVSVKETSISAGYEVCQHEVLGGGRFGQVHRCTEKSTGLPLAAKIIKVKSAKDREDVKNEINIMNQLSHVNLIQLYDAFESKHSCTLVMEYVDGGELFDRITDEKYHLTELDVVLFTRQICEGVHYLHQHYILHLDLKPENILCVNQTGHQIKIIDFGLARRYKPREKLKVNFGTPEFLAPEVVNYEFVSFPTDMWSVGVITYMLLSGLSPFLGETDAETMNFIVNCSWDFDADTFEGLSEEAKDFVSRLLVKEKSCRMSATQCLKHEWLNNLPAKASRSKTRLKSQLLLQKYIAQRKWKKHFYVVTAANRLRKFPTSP
# [5] = molecular target: Casein kinase I isoform epsilon (Homo sapiens, UniProt P49674); test: Selectivity interaction (KinomeScan (DiscoverX)) EUB0000229b CSNK1E; conditions: at 10 µM
# [6] = molecular target: Serine/threonine-protein kinase 38-like (Homo sapiens) (UniProt Q9Y2H1); test: Selectivity interaction (KinomeScan (DiscoverX)) EUB0000229b STK38L; conditions: at 10 µM
# Serine/threonine-protein kinase 38-like (Homo sapiens), sequence (Q9Y2H1 2-464 limits assumed): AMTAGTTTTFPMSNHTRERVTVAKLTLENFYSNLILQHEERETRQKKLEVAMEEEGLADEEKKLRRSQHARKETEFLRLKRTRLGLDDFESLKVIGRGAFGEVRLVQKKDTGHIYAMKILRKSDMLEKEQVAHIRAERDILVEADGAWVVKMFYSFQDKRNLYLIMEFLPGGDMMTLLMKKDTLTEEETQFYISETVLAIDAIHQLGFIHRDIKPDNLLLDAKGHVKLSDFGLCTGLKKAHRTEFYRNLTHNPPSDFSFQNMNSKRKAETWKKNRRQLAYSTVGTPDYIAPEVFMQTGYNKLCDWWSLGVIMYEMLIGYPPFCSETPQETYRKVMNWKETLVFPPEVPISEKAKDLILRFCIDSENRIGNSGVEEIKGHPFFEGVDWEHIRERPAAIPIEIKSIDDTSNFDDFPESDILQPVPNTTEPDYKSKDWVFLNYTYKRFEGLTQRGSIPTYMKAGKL
# Nuclear receptor subfamily 1 group I member 2, sequence (O75469 whole entry): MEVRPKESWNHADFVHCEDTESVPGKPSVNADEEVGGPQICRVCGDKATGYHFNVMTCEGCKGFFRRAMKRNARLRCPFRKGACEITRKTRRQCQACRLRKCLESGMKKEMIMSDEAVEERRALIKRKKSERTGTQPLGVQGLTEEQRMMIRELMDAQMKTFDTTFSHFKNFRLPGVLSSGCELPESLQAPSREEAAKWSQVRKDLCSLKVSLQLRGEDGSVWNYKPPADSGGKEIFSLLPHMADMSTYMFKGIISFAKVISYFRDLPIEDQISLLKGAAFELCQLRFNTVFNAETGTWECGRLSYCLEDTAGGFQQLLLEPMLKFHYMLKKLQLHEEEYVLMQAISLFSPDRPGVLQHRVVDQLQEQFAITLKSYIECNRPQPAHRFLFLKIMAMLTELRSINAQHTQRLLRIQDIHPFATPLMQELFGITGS
# Protein kinase C theta type, sequence (Q04759 whole entry, looked up): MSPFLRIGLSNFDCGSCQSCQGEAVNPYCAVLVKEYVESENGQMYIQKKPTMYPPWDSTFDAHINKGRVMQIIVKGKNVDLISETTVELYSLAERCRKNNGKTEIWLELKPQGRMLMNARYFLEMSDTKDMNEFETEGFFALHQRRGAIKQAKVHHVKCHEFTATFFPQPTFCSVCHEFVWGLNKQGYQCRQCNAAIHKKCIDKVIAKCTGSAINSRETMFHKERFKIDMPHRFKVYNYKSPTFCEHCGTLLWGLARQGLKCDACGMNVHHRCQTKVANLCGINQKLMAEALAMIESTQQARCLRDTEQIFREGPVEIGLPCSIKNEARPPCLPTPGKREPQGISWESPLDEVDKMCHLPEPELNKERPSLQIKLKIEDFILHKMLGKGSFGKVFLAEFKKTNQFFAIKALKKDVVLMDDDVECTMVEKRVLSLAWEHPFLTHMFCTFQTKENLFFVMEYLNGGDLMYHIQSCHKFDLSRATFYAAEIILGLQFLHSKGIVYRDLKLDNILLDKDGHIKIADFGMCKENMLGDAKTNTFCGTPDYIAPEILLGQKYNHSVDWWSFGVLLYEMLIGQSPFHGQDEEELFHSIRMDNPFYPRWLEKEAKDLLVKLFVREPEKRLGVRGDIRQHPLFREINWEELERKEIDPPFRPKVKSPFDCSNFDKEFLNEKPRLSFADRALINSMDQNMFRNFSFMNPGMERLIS
# Casein kinase I isoform epsilon, sequence (P49674 whole entry, looked up, canonical isoform): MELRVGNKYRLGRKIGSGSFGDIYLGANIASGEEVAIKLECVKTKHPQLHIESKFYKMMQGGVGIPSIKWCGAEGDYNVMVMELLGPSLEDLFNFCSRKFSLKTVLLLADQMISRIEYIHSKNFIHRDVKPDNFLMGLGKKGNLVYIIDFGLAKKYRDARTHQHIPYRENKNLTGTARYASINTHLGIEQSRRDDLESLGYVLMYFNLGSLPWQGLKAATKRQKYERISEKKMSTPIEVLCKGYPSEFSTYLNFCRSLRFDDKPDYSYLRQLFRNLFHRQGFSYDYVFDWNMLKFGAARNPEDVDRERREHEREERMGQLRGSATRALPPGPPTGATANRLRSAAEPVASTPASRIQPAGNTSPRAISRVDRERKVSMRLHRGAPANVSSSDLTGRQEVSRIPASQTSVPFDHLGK
structure (smiles),measurement,setting,value
CCC(=O)N1CC[C@H](Nc2ncnc3c2CN(c2cnc(OC)c(C(F)(F)F)c2)CC3)C1 [LENIOLISIB],IC50,[1],> 30 µM
COCC(=O)NC/C=C/c1ccc2ncnc(Nc3ccc(Oc4ccc(C)nc4)c(C)c3)c2c1 [CP-724714],% of control,[2],100%
Cc1cnc(Nc2ccc(F)cc2Cl)nc1-c1c[nH]c(C(=O)N[C@H](CO)c2cccc(Cl)c2)c1,% of inhibition,[3],6%
Nc1cnc(N2CCc3cc(S(=O)(=O)Nc4c(F)cc(Cl)cc4F)cc(N4CCCC4=O)c32)nc1 [TP-020n],% of control,[4],100%
COc1cc(N(C)c2ccnc3ccc(C(F)(F)F)cc23)cc(OC)c1OC,% binding,[5],54%
same,% binding,[6],87%
